From patent publication US20250320496A1, “MODULATION OF ABCB11 GENE TRANSCRIPTION USING ANTISENSE OLIGONUCLEOTIDES TARGETING REGULATORY RNAS” (CAMP4 Therapeutics Corporation, priority 2022, published 2025)
Strand notation (5' to 3'): a small letter for the sugar, then the base; units joined by * are phosphorothioate-linked, units joined directly phosphodiester-linked; [ ] holds rarer units or linkages, { } end groups; capitals alone tell only the bases. e = 2'-O-(2-methoxyethyl) (MOE); l = locked nucleic acid (LNA); [5mC] = 5-methylcytosine; d = 2'-deoxy (DNA)

System: human ABCB11 mRNA
Experiment: ASO treatment of primary human hepatocytes (PHH), ABCB11 mRNA by RT-qPCR normalized to B2M
Format: cell-based
Conditions: primary human hepatocytes; for ABCB11 mRNA FC (5 μM ASO vs. UNT): normalized to untreated PHHs (UNT); for ABCB11 FC mRNA (5 μM ASO vs. untreated): 5 μM ASO with PO-modifications, normalized to untreated hepatocytes
In short: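 Plated primary human hepatocytes were treated 4 h post-thaw with ASO (e.g., 1.25–10 μM; initial screen 5 μM) in medium containing 0.3 mg/ml Matrigel for 72 hrs. Total RNA was reverse-transcribed and ABCB11 mRNA measured by Taqman RT-qPCR, normalized to B2M, with fold change versus untreated PHHs.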

CO-4060 (antisense eG*eG*eA*eGeT*eGeA*eGeA*eG*eG*e[5mC]*eA*eT*eT*eT*eA*eG*eG*eG)
ABCB11 mRNA FC (5 μM ASO vs. UNT): 1.117 fold change

CO-7096 (eA*e[5mC]*e[5mC]*e[5mC]*e[5mC]*l[5mC]*e[5mC]*eT*e[5mC]*eA*l[5mC]*e[5mC]*eT*eT*eG*lG*eT*eT*e[5mC]*e[5mC]; antisense)
ABCB11 mRNA FC (5 μM ASO vs. UNT): 1.157 fold change

CO-4506 (antisense eT*eG*e[5mC]*eA*eT*eT*eG*e[5mC]*eA*eT*eG*eT*eT*eG*eA*eG*e[5mC]*eT*eG*eG)
ABCB11 mRNA FC (5 μM ASO vs. UNT): 1.169 fold change

CO-4024 (antisense eA*e[5mC]*eT*eT*eA*e[5mC]*eA*eG*eG*eA*eT*eG*e[5mC]*eA*eT*eT*eA*eA*eT*eG)
ABCB11 mRNA FC (5 μM ASO vs. UNT): 0.997 fold change

CO-3997 (antisense eG*e[5mC]*eT*eG*eT*eG*e[5mC]*eT*e[5mC]*eT*eG*eT*eA*eA*e[5mC]*eA*e[5mC]*eT*eG*eT)
ABCB11 mRNA FC (5 μM ASO vs. UNT): 1.501 fold change

CO-7063 (eT*e[5mC]*lT*eG*eG*lA*eA*eA*lA*eT*eA*lA*eT*eG*l[5mC]*e[5mC]*eT*lT*eT*e[5mC]; antisense)
ABCB11 mRNA FC (5 μM ASO vs. UNT): 1.291 fold change

CO-11222 (antisense eG*eT*lG*eG*eAlGe[5mC]*eA*lA*eA*e[5mC]*lT*eA*eGlGe[5mC]*eA*l[5mC]*eT*eG)
ABCB11 FC mRNA (5 μM ASO vs. untreated): 1.79 fold change

CO-11219 (antisense eG*eT*lGeG*lA*eGl[5mC]*eA*lAeA*l[5mC]*eTlA*eG*lGe[5mC]*lA*e[5mC]eT*eG)
ABCB11 FC mRNA (5 μM ASO vs. untreated): 2.45 fold change

CO-6981 (antisense eA*e[5mC]*eA*eG*eA*eA*eG*eT*eG*eA*eG*eG*e[5mC]*eA*eT*e[5mC]*eA*eG*eG*eT)
ABCB11 mRNA FC (5 μM ASO vs. UNT): 1.164 fold change

CO-4500 (antisense eA*eG*eA*e[5mC]*eT*eT*eT*eG*eG*e[5mC]*e[5mC]*eA*eG*eG*e[5mC]*eA*eA*eG*eA*e[5mC])
ABCB11 mRNA FC (5 μM ASO vs. UNT): 1.109 fold change

CO-4507 (antisense eG*eA*eA*eG*eA*eA*eT*eG*eG*eG*eA*eG*e[5mC]*eA*eA*eT*e[5mC]*e[5mC]*eG*e[5mC])
ABCB11 mRNA FC (5 μM ASO vs. UNT): 0.992 fold change

CO-7184: derivative ASO with additional chemical modifications based on parent ASO CO-4529 (antisense eG*eT*eG*eG*lA*eG*e[5mC]*eA*eA*lA*e[5mC]*eT*eA*eG*lG*e[5mC]*eA*e[5mC]*eT*eG)
ABCB11 mRNA FC (5 μM ASO vs. UNT): 1.582 fold change

CO-7166: derivative ASO with additional chemical modifications based on parent ASO CO-4535 (antisense eG*eT*eT*eA*eT*eT*eA*eA*eT*eT*e[5mC]*eT*eA*e[5mC]*eA*eG*eA*eG*eG*eG)
ABCB11 mRNA FC (5 μM ASO vs. UNT): 1.517 fold change

CO-4059 (antisense eG*eT*eA*eA*eG*e[5mC]*eT*e[5mC]*eA*eG*eG*e[5mC]*eAeA*eA*eG*eG*eA*eG*eA)
ABCB11 mRNA FC (5 μM ASO vs. UNT): 1.186 fold change

CO-6967 (antisense eG*eA*eT*eG*eT*eA*eG*eA*eT*eG*eA*eA*eT*eG*eG*e[5mC]*eA*eA*eG*eG)
ABCB11 mRNA FC (5 μM ASO vs. UNT): 1.405 fold change

CO-4020 (antisense e[5mC]*eA*eT*eG*eT*eA*eT*e[5mC]*eA*eA*eT*e[5mC]*eT*e[5mC]*eT*eT*eA*eG*eA*eG)
ABCB11 mRNA FC (5 μM ASO vs. UNT): 1.201 fold change

CO-7183 (antisense eG*eT*eG*eG*eA*lG*e[5mC]*eA*eA*eA*l[5mC]*eT*eA*eG*eG*l[5mC]*eA*e[5mC]*eT*eG)
ABCB11 mRNA FC (5 μM ASO vs. UNT): 1.295 fold change

CO-11212 (antisense eG*eT*lGeGlAeGl[5mC]*eA*lA*eA*l[5mC]*eT*lA*eGlGe[5mC]lAe[5mC]*eT*eG)
ABCB11 FC mRNA (5 μM ASO vs. untreated): 2.44 fold change

CO-7113 (TACATTTAGAGACAAAGAATCGCT; MOE/LNA gapmer, PS/PO backbone, 5-methylcytosine; listed as DNA; modified_base 1..24: mod_base = OTHER; note = Phosphorothioate linkage; modified_base 1..5: mod_base = OTHER; note = 2'-O-(2-methoxyethyl) ribonucleotide; misc_feature 1..5: note = RNA; misc_feature 6..7: note = DNA; misc_feature 8: note = RNA)
ABCB11 mRNA FC (5 μM ASO vs. UNT): 1.179 fold change

CO-7104 (eT*eA*eT*e[5mC]*eT*dG*dG*eA*dA*dA*eA*dT*dA*eA*dT*dG*e[5mC]*d[5mC]*dT*eT*eT*e[5mC]*eT*eA; antisense)
ABCB11 mRNA FC (5 μM ASO vs. UNT): 0.918 fold change

CO-4482 (antisense eT*eA*eA*e[5mC]*eT*eG*eG*eG*eA*eG*eT*eA*eT*eA*eG*eA*eG*eG*eA*e[5mC])
ABCB11 mRNA FC (5 μM ASO vs. UNT): 1.001 fold change

CO-7171 (antisense eA*eG*eT*e[5mC]*eT*eT*eA*eT*eT*eT*eG*eG*e[5mC]*eG*eT*eT*eA*eT*eT*eA)
ABCB11 mRNA FC (5 μM ASO vs. UNT): 1.46 fold change

CO-3996 (antisense eT*eT*eG*eT*e[5mC]*eT*e[5mC]*eT*eG*eG*eT*eT*eG*eAeA*eG*e[5mC]*e[5mC]*eT*e[5mC])
ABCB11 mRNA FC (5 μM ASO vs. UNT): 2.097 fold change

CO-7187: derivative ASO with additional chemical modifications based on parent ASO CO-4535 (antisense eT*eG*eG*e[5mC]*lG*dT*dT*dA*lT*dT*dA*dA*lT*dT*d[5mC]*eT*lA*e[5mC]*eA*eG)
ABCB11 mRNA FC (5 μM ASO vs. UNT): 1.544 fold change

CO-7013 (antisense eA*eG*eT*eG*eA*eG*dG*d[5mC]*dA*dT*d[5mC]*dA*dG*dG*dT*dA*eA*eG*eT*eT*e[5mC]*e[5mC])
ABCB11 mRNA FC (5 μM ASO vs. UNT): 0.997 fold change

CO-3994 (antisense e[5mC]*e[5mC]*e[5mC]*eA*e[5mC]*eT*e[5mC]*eT*eA*eG*eA*eT*eT*eG*e[5mC]*eA*eA*eG*e[5mC]*e[5mC])
ABCB11 mRNA FC (5 μM ASO vs. UNT): 1.988 fold change

CO-11201 (antisense eT*eGeTeTeTeTeG*e[5mC]*eT*eT*eG*eG*eT*e[5mC]eAeAeGeAeG*eG)
ABCB11 FC mRNA (5 μM ASO vs. untreated): 0.99 fold change

CO-11234 (antisense eG*eT*eG*eG*lAeGe[5mC]*eA*eA*lA*e[5mC]*eT*eA*eGlGe[5mC]*eA*e[5mC]*eT*eG)
ABCB11 FC mRNA (5 μM ASO vs. untreated): 1.55 fold change

CO-7070 (e[5mC]*eA*eT*eT*lT*dA*dG*dA*lG*dA*d[5mC]*dA*lA*dA*dG*eA*lA*eT*e[5mC]*eG; antisense)
ABCB11 mRNA FC (5 μM ASO vs. UNT): 1.044 fold change

CO-6966 (antisense eA*eT*eG*eA*eA*eT*eG*eG*e[5mC]*eA*eA*eG*eG*eA*eG*eA*eG*eG*eA*eT)
ABCB11 mRNA FC (5 μM ASO vs. UNT): 1.177 fold change

CO-7185 (antisense eT*eG*eG*e[5mC]*eG*lT*dT*dA*lT*dT*dA*lA*dT*dT*l[5mC]*eT*eA*e[5mC]*eA*eG)
ABCB11 mRNA FC (5 μM ASO vs. UNT): 1.327 fold change

CO-7152 (antisense eA*e[5mC]*e[5mC]*eT*eT*eA*eG*dG*dA*dG*dG*dA*dT*dT*dA*dT*dT*eT*eA*eA*e[5mC]*e[5mC]*eT*e[5mC])
ABCB11 mRNA FC (5 μM ASO vs. UNT): 1.28 fold change

CO-7088 (eA*e[5mC]*e[5mC]*e[5mC]*e[5mC]*l[5mC]*d[5mC]*dT*l[5mC]*dA*d[5mC]*l[5mC]*dT*dT*lG*eG*eT*eT*e[5mC]*e[5mC]; antisense)
ABCB11 mRNA FC (5 μM ASO vs. UNT): 1.177 fold change

CO-4520 (antisense eG*eG*eA*eA*eG*eA*eA*eG*eG*eT*eT*eA*eG*e[5mC]*eA*e[5mC]*eA*eG*eA*e[5mC])
ABCB11 mRNA FC (5 μM ASO vs. UNT): 0.945 fold change

CO-6673 (antisense eG*eA*eA*eG*eG*dA*d[5mC]*dA*d[5mC]*dA*dA*dT*dT*dT*d[5mC]*eT*eG*eT*eA*eG)
ABCB11 mRNA FC (5 μM ASO vs. UNT): 1.313 fold change

CO-6982 (antisense eA*eA*eG*eA*e[5mC]*eA*eG*eA*eA*eG*eT*eG*eA*eG*eG*e[5mC]*eA*eT*e[5mC]*eA)
ABCB11 mRNA FC (5 μM ASO vs. UNT): 0.976 fold change

CO-7033 (antisense eG*eA*eG*eA*e[5mC]*eA*eA*eA*eG*eA*eA*eT*e[5mC]*eG*e[5mC]*eT*eG*eT*eG*eG)
ABCB11 mRNA FC (5 μM ASO vs. UNT): 1.316 fold change

CO-11229 (antisense eG*eTlG*eG*eA*lGe[5mC]*eA*lA*eAe[5mC]*lT*eA*eGlG*e[5mC]*eA*l[5mC]eT*eG)
ABCB11 FC mRNA (5 μM ASO vs. untreated): 2.83 fold change

CO-7061 (eT*e[5mC]*eT*lG*eG*lA*eA*lA*eA*lT*eA*lA*eT*lG*e[5mC]*l[5mC]*eT*lT*eT*e[5mC]; antisense)
ABCB11 mRNA FC (5 μM ASO vs. UNT): 1.261 fold change

CO-7188: derivative ASO with additional chemical modifications based on parent ASO CO-4535 (antisense eT*eG*eG*l[5mC]*eG*lT*eT*lA*eT*lT*eA*lA*eT*lT*e[5mC]*lT*eA*l[5mC]*eA*eG)
ABCB11 mRNA FC (5 μM ASO vs. UNT): 1.697 fold change

CO-7024 (antisense eG*e[5mC]*eT*eT*eA*eT*e[5mC]*eT*eG*eG*eA*eA*eA*eA*eT*eA*eA*eT*eG*e[5mC])
ABCB11 mRNA FC (5 μM ASO vs. UNT): 1.415 fold change

CO-4032 (antisense eA*eG*eT*e[5mC]*e[5mC]*eA*eT*eT*eA*eT*eT*eT*e[5mC]*e[5mC]*eT*e[5mC]*eT*eG*eG*e[5mC])
ABCB11 mRNA FC (5 μM ASO vs. UNT): 1.311 fold change

CO-7064 (eT*e[5mC]*eT*eG*lG*eA*eA*eA*lA*eT*eA*eA*lT*eG*e[5mC]*e[5mC]*lT*eT*eT*e[5mC]; antisense)
ABCB11 mRNA FC (5 μM ASO vs. UNT): 1.017 fold change

CO-11230 (antisense eG*eTlG*eG*eAlG*e[5mC]*eAlA*eA*e[5mC]lT*eA*eGlG*e[5mC]*eAl[5mC]*eT*eG)
ABCB11 FC mRNA (5 μM ASO vs. untreated): 1.63 fold change

CO-3991 (antisense eG*eG*eG*eA*eT*eG*eA*e[5mC]eT*e[5mC]*e[5mC]eT*eA*eA*eA*eA*eA*eT*eG*eG)
ABCB11 mRNA FC (5 μM ASO vs. UNT): 1.614 fold change

CO-6969 (antisense eT*eG*eT*eG*eG*eA*eT*eG*eT*eA*eG*eA*eT*eG*eA*eA*eT*eG*eG*e[5mC])
ABCB11 mRNA FC (5 μM ASO vs. UNT): 1.266 fold change

CO-7198 (eG*eG*eT*eG*eG*lA*dG*d[5mC]*lA*dA*dA*d[5mC]*dT*lA*dG*dG*l[5mC]*eA*e[5mC]*eT*eG*eA; antisense)
ABCB11 mRNA FC (5 μM ASO vs. UNT): 1.075 fold change
